Source: patent US20230210845A1, “DOSING METHODS FOR TREATMENT OF CARDIOVASCULAR CONDITIONS” (IMBRIA PHARMACEUTICALS, INC., priority 2020, published 2023)
Like-named read-outs stand apart in the source and are kept apart here.

Experiments:
[1] = FIH study: plasma PK, single and multiple dose results combined; assay type: in vivo, human (healthy subjects); conditions: all blood samples of subjects that received IMB-1018972
Experimental: This was a double-blind, randomized, placebo-controlled study, consisting of a single ascending dose (SAD) part with integrated food effect (FE) arm, a multiple ascending dose (MAD) part, to assess the safety, tolerability, and PK of ascending single and multiple oral doses of IMB-1018972 (immediate-release [IR] formulation in the SAD and MAD parts).
(§1) The blood samples were taken via an indwelling intravenous catheter or by direct venipuncture. The exact times of blood sampling were recorded in the eCRF.

[2] = MAD part: safety and tolerability (TEAEs); assay type: in vivo, human (healthy subjects)
Experimental: (§2) AEs were recorded from (first) admission until completion of the follow-up visit. Any clinically significant observations in results of clinical laboratory, 12-lead ECGs, vital signs, or physical examinations were recorded as AEs.
(§3) A treatment-emergent AE (TEAE) was defined as any event not present prior to (the first) administration of the study drug or any event already present that worsened in either severity or frequency following exposure to the study drug.
(§4) At several time points before and after drug administration, subjects were asked nonleading questions to determine the occurrence of AEs. Subjects were asked in general terms about any AEs at regular intervals during the study. In addition, all AEs reported spontaneously during the course of the study were recorded. Details included description of the event, date and time of onset, date and time of end, total duration, severity, relationship to study drug, intervention, seriousness, and outcome. All answers were interpreted by the Investigator and were recorded in the eCRF. All AEs were classified according to the Medical Dictionary for Regulatory Activities (MedDRA; Version 22.0) for AEs.
(§5) The severity of the AEs was rated as mild, moderate, or severe; the relationship between the AEs and the study drug was indicated as none, unlikely, possibly, likely, or definitely. Adverse events assessed as possibly, likely, or definitely were considered related to the study drug; AEs assessed as none or unlikely were considered not related to the study drug.

[3] = 28-day dog toxicology study (NOAEL and exposure); assay type: in vivo; conditions: for AUC0-8×2: Day 26, IMB-1018972 200 mg/kg/day
Experimental: Based on the nonclinical toxicology data, it was considered that subjects in this clinical study were not at unreasonable risk of adverse effects. […] For a 60-kg individual, the NOAEL dose would be 6480 mg. With a 10-fold safety factor applied, this would allow for a maximum recommended starting dose (MRSD) of 648 mg/day.7,8 The planned starting dose in the current Phase 1 study was 50 mg, equivalent to 0.83 mg/kg/day for a 60-kg subject. This starting dose is less than 10% of the MRSD determined from the dog NOAEL and less than 1% of the dog NOAEL.
The relevant animal study was the 28-day dog study where the NOAEL for IMB-1018972 was 200 mg/kg/day.

[4] = SAD part (and integrated FE arm): safety and tolerability (TEAEs)
Experimental: (§6) Each subject participated in only 1 group during the study.
as §2, §3, §4, §5

[5] = FIH study overall safety (deaths, clinical laboratory, vital signs, ECG, telemetry, physical examination)
Experimental: AEs were recorded from (first) admission until completion of the follow-up visit. Any clinically significant observations in results of clinical laboratory, 12-lead ECGs, vital signs, or physical examinations were recorded as AEs. […]
Systolic and diastolic blood pressure and pulse were recorded after the subject had been resting for at least 5 minutes in the supine position. […] Body temperature and respiratory rate were measured subsequently.
The ECG was recorded using an ECG machine equipped with computer-based interval measurements (with no/minimal disturbance by procedures). The following ECG parameters were recorded: heart rate, PR-interval, QRS-duration, QT-interval, QTcF-interval, and the interpretation of the ECG profile by the Investigator.
Physical examination was performed according to PRA SOPs. In addition, body weight and height were measured according to PRA SOPs.

[6] = clinical
Experimental: Subjects with R2 below 0.80 or %AUCextra>20% were not excluded from the dose-proportionality evaluation based on AUC0-inf. A point estimate and 95% CI were produced for the slope. […] Since there were only 2 dose levels in the MAD part, no dose-proportionality analysis was performed for the MAD part.

[7] = clinical; parameters: species or system human (healthy subjects); conditions: human, in vivo, po, 35 mg
Experimental: as §6, §1

[8] = clinical; assay type: in vivo, human (healthy subjects); conditions: plasma; for Tmax: human, oral, 150 mg, read-out: median tmax
Experimental: Subjects from Group A4 of the SAD part were assigned to the integrated FE arm. After administration of the drug to fasting subjects in the SAD part, the FE arm used the same subjects and experimental procedures.
Before dosing, subjects fasted overnight for at least 10 hours following a snack on the evening before. Then, subjects received an FDA-defined high-fat breakfast that had to be consumed within 20 minutes. The entire breakfast had to be consumed by the subjects. Dosing occurred at 30 minutes after the start of breakfast. Following dosing, subjects fasted for 4 hours until lunch. During fasting, fluids other than water were not allowed.

[9] = SAD part: PK in urine (urinary excretion, renal clearance); assay type: in vivo, human (healthy subjects); conditions: for CL renal: human, urine, read-out: geometric mean renal clearance (CLR) (converted)
Experimental: Urine collection for PK was only conducted in the SAD part, but not in the second period of the FE group A4.
The subjects were instructed to empty their bladders completely before study drug administration and at the end of each collection interval. A blank urine sample was collected within 12 hours prior to study drug administration. The exact times of urine collection and the urine weight of the entire interval (before and after addition of any urine stabilizers, if used) were recorded in the eCRF.

[10] = Experimental: Subjects received multiple oral doses of an IR formulation of IMB-1018972 or placebo once every 12 hours (q12h) for 14 consecutive days.
The doses were selected based upon the safety, tolerability, and PK data from the SAD part: • Group B1 multiple oral doses of an IR formulation of 150 mg IMB-1018972 (n=9) or matching placebo (n=3) twice daily (q12h) for 14 days; on Day 14 only a single morning dose was administered • Group B2: multiple oral doses of an IR formulation of 50 mg IMB-1018972 (n=9) or matching placebo (n=3) q12h for 14 days; on Day 14 only a single morning dose was administered
Before each morning dose, subjects fasted overnight for at least 10 hours following a snack on the evening before. On Days 1 and 14, subjects received a standardized breakfast that had to be consumed within 20 minutes. Dosing occurred at 30 minutes after the start of breakfast. Following dosing, subjects fasted for 4 hours until lunch. During fasting, fluids other than water were not allowed. On Days 2 to 13, breakfast was not standardized and was given within maximally 1 hour before dosing and consumed before dosing. No fasting after dosing was applicable on these days.

[11] = 150 mg IMB-1018972, fasted (FE group)
[12] = 150 mg IMB-1018972, fed (FDA high-fat breakfast)
[13] = single oral dose 35 mg trimetazidine, all 4 TEAEs

SMILES: COc1ccc(CN2CCN(CCOC(=O)c3cccnc3)CC2)c(OC)c1OC [IMB-1018972]
- measurability of parent compound in plasma [1]: could be measured in only few plasma samples
- TEAEs of flushing ([2]; 50 mg q12h fed): No TEAEs of flushing were reported
- number of TEAEs of flushing (incidental and mild) ([2]; 150 mg q12h fed): 7
- subjects with TEAEs of flushing ([2]; 150 mg q12h fed (n=9)): 6
- subjects reporting drug-related TEAEs ([2]; MAD part (6 of 18)): 33.3%
- subjects reporting TEAEs not related to the study drug ([2]; MAD part (11 of 18)): 61.1%
- severity of TEAEs ([2]; MAD part, all TEAEs): mild severity
- total number of TEAEs ([2]; all IMB-1018972 subjects of MAD part): 35
- maximum recommended starting dose (MRSD) ([3]; both, dog, in vivo, 28 days): 648 mg/day
- effect of dosing under fed conditions on TEAEs ([4]; FE arm of SAD part, 150 mg): appeared to attenuate the number and incidence of TEAEs
- TEAEs of flushing of mild severity ([4]; SAD part): 1
- TEAEs of flushing of moderate severity ([4]; SAD part): 5
- number of TEAEs of flushing (most common AEs) ([4]; SAD part): 6
- severe TEAEs ([4]; SAD part): No severe TEAEs were reported
- subjects reporting drug-related TEAEs of flushing ([4]; SAD part (6 subjects)): 25%
- subjects reporting drug-related TEAEs ([4]; SAD part (7 of 24)): 29.2%
- serious adverse event leading to withdrawal ([4]; Subject 131, 150 mg fasted, FE arm Group A4, moderate, unlikely related): influenza like illness
- total number of TEAEs ([4]; all IMB-1018972 subjects of SAD part): 45
- drug-related TEAEs ([4]; following 50 mg and 150 mg (fasted only group)): No drug-related TEAEs were reported
- subjects who reported flushing ([4]; single dose 150 mg fasted, FE arm (n=6)): 2
- clinical laboratory, vital signs, 12-lead ECG, telemetry, physical examination ([5]; single and multiple oral doses, IR formulation): no findings of clinical relevance
- deaths ([5]; whole study): no deaths reported

SMILES: COc1ccc(CN2CCNCC2)c(OC)c1OC [trimetazidine]
- Tmax ([6]; human, in vivo): 1.5 to 2 h
- time postdose at which detectable concentrations generally seen ([6]; human, in vivo): 15 to 30 min
- Tmax ([6]; human, in vivo, po, 50 mg): 1 to 2 h
- half-life ([6]; human, plasma, oral): 6.76 to 8 h
- AUC(0-inf) [7]: 929 ng·h/mL
- AUC(0-t) [7]: 912 ng·h/mL
- Cmax [7]: 68.6 ng/mL
- half-life [7]: 7.49 h
- Tmax [8, 11]: 1.5 h
- Tmax [8, 12]: 4 h
- CL renal ([9]; oral, range over single doses 50 mg to 400 mg IMB-1018972): 302 to 347 mL/min
- CL renal ([9]; po, 35 mg): 340 mL/min
- arithmetic mean percent of the dose excreted in urine ([9]; within 48 hours after single oral dose of 35 mg trimetazidine): 54.47%
- total number of TEAEs ([4]; single oral dose 35 mg trimetazidine): 4
- relationship of TEAEs to study drug [4, 13]: not to be related to the study drug
- severity of TEAEs [4, 13]: mild severity

SMILES: COc1ccc(CN2CCN(CCO)CC2)c(OC)c1OC [IMB-1028814]
- dose proportionality for Cmax, AUC0-t, AUC0-inf (95% CIs of slopes included 1) ([6]; IMB-1018972 single-dose range 50 to 400 mg, fasted): no evidence of a deviation from dose proportionality
- median tmax ([6]; plasma, single-dose range 50 mg to 400 mg IMB-1018972 IR, fasted): around 1 hours
- median tmax [8, 11]: 1 h
- median tmax [8, 12]: 2 h
- state of concentrations at Day 14 dose (trough concentrations, visual inspection) ([10]; 150 mg fed and 50 mg fed q12h): steady-state conditions
- geometric mean Cmax higher on Day 1 in MAD part than after single dose in SAD part ([10]; 150 mg fed in both parts): 97%
- geometric mean t1/2 ([10]; Day 14 after 50 mg q12h fed): 2.79 h
- geometric mean t1/2 ([10]; Day 14 after 150 mg q12h fed): 4.48 h
- AUC0-8×2 ([3]; female dogs): 652,849 ng.h/mL
- AUC0-8×2 ([3]; male dogs): 417,733 ng.h/mL
